What was measured:
[1] = Cynomolgus monkey tolerability, kidney and liver function markers (Example 34); conditions: cynomolgus monkeys, 35 mg/kg subcutaneously, day 44
[2] = Cynomolgus monkey tolerability, coagulation (Example 34); format: in vivo; conditions: cynomolgus monkeys, 35 mg/kg subcutaneously, day 44
Procedure: To evaluate effect of Ionis modified oligonucleotides on coagulation in cynomolgus monkeys, blood samples of approximately 0.9 mL were collected from each of the available study animals on day 44. The samples were collected in tubes containing 3.2% sodium citrate. Coagulation parameters tested include Activated partial thromboplastin time (APTT), prothrombin time (PT) and Figrinogen (FIB).

[3] = Cynomolgus monkey tolerability, hematology (Example 34); format: in vivo, cynomolgus monkeys; conditions: for BAS / EOS / HCT / HGB / LUC / LYM / MCH / MCHC / MCV / MON / NEU / PLT / RBC / RCDW / Retic / WBC: cynomolgus monkey, in vivo, sc, 35 mg/kg; for MPV: cynomolgus monkeys, 35 mg/kg subcutaneously, day 44
In short: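 On day 44, blood from oligonucleotide-treated cynomolgus monkeys was collected into K2-EDTA. An automated analyzer measured red cell indices, reticulocytes, platelets and MPV, and total and differential white cell counts.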

[4] = system: Yap1 mRNA; assay: Dose-dependent inhibition of human Yap1 in A-431 cells (Example 24, 11,000 cells per well, RTS36584, normalized to GAPDH); format: cell-based; conditions: free uptake, 48 hours, RTS36584, normalized to GAPDH
Procedure: Modified oligonucleotides described in the studies above were tested at various doses in A-431 cells. Cultured A-431 cells at a density of 11,000 cells per well were treated using free uptake with modified oligonucleotides diluted to concentrations described in the tables below. After approximately 48 hours, Yap1 mRNA levels were measured as previously described using the Human Yap1 primer-probe set RTS36584. Yap1 mRNA levels were normalized to GAPDH content, as measured by primer probe set RTS104 (forward sequence […], designated herein as SEQ ID NO.: 17; reverse sequence […], designated herein as SEQ ID NO.: 18; probe sequence […], designated herein as SEQ ID NO.: 19). Results are presented in the tables below as percent control of the amount of Yap1 mRNA relative to untreated control cells (% UTC). IC50s were calculated using a linear regression on a log/linear plot of the data in excel.

[5] = Tolerability in Sprague-Dawley rats, plasma chemistry markers (Example 22); format: in vivo; conditions: male Sprague-Dawley rats, 50 mg/kg s.c. weekly for 6 weeks (7 doses), 48 hours after last dose
Procedure: Sprague-Dawley rats are a multipurpose model used for safety and efficacy evaluations. The rats were treated with Ionis modified oligonucleotides from the studies described in the Examples above and evaluated for changes in the levels of various plasma chemistry markers.

[6] = system: Yap1 mRNA; assay: Inhibition of human Yap1 mRNA in SNU449 hepatocellular carcinoma xenograft tumors (Example 26); format: in vivo; conditions: SNU449 xenografts in NSG mice, 50 mg/kg twice weekly for five days, relative to PBS treated animals
In short: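 Female NSG mice bearing subcutaneous SNU449 xenografts (about 100 mm^3) dosed with modified oligonucleotides at 50 mg/kg twice weekly for five days, four per group. Tumour Yap1 mRNA measured by RT-qPCR, normalized to actin-beta, expressed as % of PBS-treated controls.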

[7] = system: Yap1 mRNA; assay: Yap1 mRNA in SCC25 cells, RNA analysis (Example 25); format: cell-based, human; conditions: free uptake, 48 hours, RTS4814, normalized to actin-beta
Procedure: Modified oligonucleotides described in the studies above were tested at various doses in squamous cell carcinoma cell SCC25. A control oligonucleotide 792169 (a 3-10-3 cET gapmer with a full phosphorothioate backbone, […], designated herein as SEQ ID No.: 2940; is not complementary to any known human gene) was also tested.
Cultured SCC25 cells at a density of 5,000 cells per well were treated using free uptake with modified oligonucleotides diluted to concentrations described in the tables below. After approximately 48 hours, Yap1 mRNA levels were measured as previously described using the Human Yap1 primer-probe set RTS4814. Yap1 mRNA levels were normalized to actin-beta content, as measured by primer probe set RTS5002 (forward sequence […], designated herein as SEQ ID NO.: 20; reverse sequence […], designated herein as SEQ ID NO.: 21; probe sequence […], designated herein as SEQ ID NO.: 22). Results are presented in the tables below as percent control of the amount of Yap1 mRNA relative to untreated control cells (% UTC).

[8] = rat, in vivo, sc, 50 mg/kg
Procedure: Male Sprague-Dawley rats were maintained on a 12-hour light/dark cycle and fed ad libitum with Purina normal rat chow. Groups of 4 Sprague-Dawley rats each were weekly injected subcutaneously with 50 mg/kg of Ionis oligonucleotide for 6 weeks (total 7 doses). Forty-eight hours after the last dose, the rats were euthanized; and organs, urine and plasma were harvested for further analysis.
To evaluate the effect of Ionis oligonucleotides on kidney function, urinary levels of total protein and creatinine were measured using an automated clinical chemistry analyzer (Hitachi Olympus AU400c, Melville, N.Y.).

Substance: 1198831 (CACTTTTACATTAGGA; chemically modified gapmer, further chemistry not given here) [compound 1198831]
- ALB [1]: 3.9 g/dL
- ALP [1]: 1096 IU/L
- ALT [1]: 48 IU/L
- AST [1]: 63 IU/L
- BUN [1]: 26 mg/dL
- CREA [1]: 0.7 mg/dL
- GGT [1]: 65 IU/L
- GLO [1]: 2.8 g/dL
- GLU [1]: 73 mg/dL
- HDL [1]: 108 mg/dL
- LDL [1]: 63 mg/dL
- TBIL [1]: 0.3 mg/dL
- TG [1]: 22 mg/dL
- TP [1]: 6.7 g/dL
- APTT [2]: 18 s
- FIB [2]: 209 mg/dL
- PT [2]: 10 s
- BAS [3]: 0.3%
- EOS [3]: 2.0%
- HCT [3]: 43%
- HGB [3]: 13 g/dL
- LUC [3]: 0.8%
- LYM [3]: 50%
- MCH [3]: 23 pg
- MCHC [3]: 30 g/dL
- MCV [3]: 76 fL
- MON [3]: 3.3%
- NEU [3]: 44%
- PLT [3]: 377 10^3/μL
- RBC [3]: 5.6e+06 µL⁻¹
- RCDW [3]: 12%
- Retic [3]: 1.0%
- WBC [3]: 7600 µL⁻¹
- MPV [3]: 7.3 fL
- Yap1 mRNA, % UTC ([4]; 0.002 μM): 2 % UTC
- Yap1 mRNA, % UTC ([4]; 0.008 μM): 6 % UTC
- Yap1 mRNA, % UTC ([4]; 0.04 μM): 28 % UTC
- Yap1 mRNA, % UTC ([4]; 0.2 μM): 72 % UTC
- Yap1 mRNA, % UTC ([4]; 1 μM): 83 % UTC
- ALT [5]: 54 U/L
- AST [5]: 69 U/L
- BUN [5]: 23 mg/dL
- TBIL [5]: 0.20 mg/dL
- Yap1 mRNA in tumors, % control [6]: 67 % control
- Yap1 mRNA, % UTC ([7]; 0.04 μM): 63 % UTC
- Yap1 mRNA, % UTC ([7]; 0.2 μM): 36 % UTC
- Yap1 mRNA, % UTC ([7]; 1 μM): 16 % UTC
- Yap1 mRNA, % UTC ([7]; 5 μM): 14 % UTC
- URINE P/C ratio (total protein to creatinine ratio) [8]: 17

Substance: 1198623 (CTAAGTAAGGTTTCCC; modified gapmer, further chemistry not given here) [compound 1198623]
- ALB [1]: 4.2 g/dL
- ALP [1]: 916 IU/L
- ALT [1]: 50 IU/L
- AST [1]: 47 IU/L
- BUN [1]: 26 mg/dL
- CREA [1]: 0.8 mg/dL
- GGT [1]: 59 IU/L
- GLO [1]: 3.0 g/dL
- GLU [1]: 70 mg/dL
- HDL [1]: 87 mg/dL
- LDL [1]: 50 mg/dL
- TBIL [1]: 0.2 mg/dL
- TG [1]: 34 mg/dL
- TP [1]: 7.2 g/dL
- APTT [2]: 17 s
- FIB [2]: 229 mg/dL
- PT [2]: 10 s
- BAS [3]: 0.4%
- EOS [3]: 0.8%
- HCT [3]: 46%
- HGB [3]: 14 g/dL
- LUC [3]: 0.7%
- LYM [3]: 53%
- MCH [3]: 23 pg
- MCHC [3]: 30 g/dL
- MCV [3]: 78 fL
- MON [3]: 2.0%
- NEU [3]: 43%
- PLT [3]: 376 10^3/μL
- RBC [3]: 5.9e+06 µL⁻¹
- RCDW [3]: 13%
- Retic [3]: 1.0%
- WBC [3]: 11700 µL⁻¹
- MPV [3]: 7.8 fL
- Yap1 mRNA, % UTC ([4]; 0.002 μM): 2 % UTC
- Yap1 mRNA, % UTC ([4]; 0.008 μM): 5 % UTC
- Yap1 mRNA, % UTC ([4]; 0.04 μM): 28 % UTC
- Yap1 mRNA, % UTC ([4]; 0.2 μM): 72 % UTC
- Yap1 mRNA, % UTC ([4]; 1 μM): 96 % UTC
- ALT [5]: 96 U/L
- AST [5]: 87 U/L
- BUN [5]: 21 mg/dL
- TBIL [5]: 0.24 mg/dL
- Yap1 mRNA in tumors, % control [6]: 60 % control
- Yap1 mRNA, % UTC ([7]; 0.04 μM): 61 % UTC
- Yap1 mRNA, % UTC ([7]; 0.2 μM): 31 % UTC
- Yap1 mRNA, % UTC ([7]; 1 μM): 15 % UTC
- Yap1 mRNA, % UTC ([7]; 5 μM): 10 % UTC
- URINE P/C ratio (total protein to creatinine ratio) [8]: 5

Substance: 1198872 (TGTATGTCAGAAGAGT; chemically modified gapmer, further chemistry not given here) [compound 1198872]
- ALB [1]: 4.0 g/dL
- ALP [1]: 1098 IU/L
- ALT [1]: 48 IU/L
- AST [1]: 94 IU/L
- BUN [1]: 27 mg/dL
- CREA [1]: 0.9 mg/dL
- GGT [1]: 79 IU/L
- GLO [1]: 3.1 g/dL
- GLU [1]: 80 mg/dL
- HDL [1]: 114 mg/dL
- LDL [1]: 60 mg/dL
- TBIL [1]: 0.3 mg/dL
- TG [1]: 19 mg/dL
- TP [1]: 7.1 g/dL
- APTT [2]: 21 s
- FIB [2]: 206 mg/dL
- PT [2]: 10 s
- BAS [3]: 0.3%
- EOS [3]: 0.6%
- HCT [3]: 44%
- HGB [3]: 13 g/dL
- LUC [3]: 0.5%
- LYM [3]: 32%
- MCH [3]: 23 pg
- MCHC [3]: 30 g/dL
- MCV [3]: 78 fL
- MON [3]: 2.2%
- NEU [3]: 64%
- PLT [3]: 400 10^3/μL
- RBC [3]: 5.7e+06 µL⁻¹
- RCDW [3]: 12%
- Retic [3]: 1.2%
- WBC [3]: 10400 µL⁻¹
- MPV [3]: 7.1 fL
- Yap1 mRNA, % UTC ([4]; 0.002 μM): 1 % UTC
- Yap1 mRNA, % UTC ([4]; 0.008 μM): 3 % UTC
- Yap1 mRNA, % UTC ([4]; 0.04 μM): 19 % UTC
- Yap1 mRNA, % UTC ([4]; 0.2 μM): 70 % UTC
- Yap1 mRNA, % UTC ([4]; 1 μM): 94 % UTC
- ALT [5]: 109 U/L
- AST [5]: 134 U/L
- BUN [5]: 18 mg/dL
- TBIL [5]: 0.20 mg/dL
- Yap1 mRNA in tumors, % control [6]: 52 % control
- Yap1 mRNA, % UTC ([7]; 0.04 μM): 54 % UTC
- Yap1 mRNA, % UTC ([7]; 0.2 μM): 22 % UTC
- Yap1 mRNA, % UTC ([7]; 1 μM): 9 % UTC
- Yap1 mRNA, % UTC ([7]; 5 μM): 7 % UTC
- URINE P/C ratio (total protein to creatinine ratio) [8]: 8
